Results as given in the NIST ThermoML archive (doi:10.1016/j.jct.2007.09.011).

Tests used:
[1] = refractive index (Na D-line) (dimensionless); xn = mol fraction of the nth substance listed; details: 298.15 K, 101 kPa, Liquid
[2] = refractive index (Na D-line) (dimensionless); details: 298.15 K; 101.33 kPa; Liquid
[3] = 101 kPa, Liquid
[4] = xn = mol fraction of the nth substance listed; details: 101 kPa, Liquid

CCCCCCCC[n+]1ccn(C)c1.F[B-](F)(F)F [1-methyl-3-octylimidazolium tetrafluoroborate] + COCCOCCO
Details	refractive index
[1], x1 = 1	1.4319

COCCOCCOCCO [2-[2-(2-methoxyethoxy)ethoxy]ethanol]
Details	refractive index
[2]	1.4362

[3]
Details	mass density [kg/m3]
298.15 K	1044.91
308.15 K	1036.11
318.15 K	1027.28

COCCOCCOCCO [2-[2-(2-methoxyethoxy)ethoxy]ethanol] + CCCCCCCC[n+]1ccn(C)c1.F[B-](F)(F)F
[1]
Details	refractive index
x2 = 0	1.4362
x2 = 0.0122	1.4364
x2 = 0.0223	1.4366
x2 = 0.0994	1.4372
x2 = 0.2073	1.4373
x2 = 0.3192	1.4369
x2 = 0.42	1.4361
x2 = 0.5301	1.4352
x2 = 0.7153	1.4334
x2 = 0.8449	1.4325
x2 = 0.9395	1.4321
x2 = 0.992	1.432

mass density [kg/m3], [4]
Details	298.15 K	308.15 K	318.15 K
x2 = 0	1044.91	1036.11	1027.28
x2 = 0.0122	1046.7	1037.94	1029.17
x2 = 0.0223	1048.13	1039.41	1030.69
x2 = 0.0994	1057.7	1049.21	1040.84
x2 = 0.2073	1067.89	1059.71	1051.67
x2 = 0.3192	1075.71	1067.81	1060
x2 = 0.42	1081.2	1073.51	1065.88
x2 = 0.5301	1086.14	1078.64	1071.18
x2 = 0.7153	1093.01	1085.74	1078.58
x2 = 0.8449	1097.08	1089.95	1082.96
x2 = 0.9395	1099.66	1092.63	1085.72
x2 = 0.992	1100.9	1093.94	1087.05

COCCO [2-methoxyethan-1-ol]
Details	refractive index
[2]	1.4004

[3]
Details	mass density [kg/m3]
298.15 K	960.05
308.15 K	950.81
318.15 K	941.45

CCCCCCCC[n+]1ccn(C)c1.F[B-](F)(F)F [1-methyl-3-octylimidazolium tetrafluoroborate] + COCCOCCOCCO
Details	refractive index
[1], x1 = 1	1.4319

[4], x1 = 1
Details	mass density [kg/m3]
298.15 K	1101.08
308.15 K	1094.13
318.15 K	1087.24
